Laboratory results: US7390806B2, “Antibiotics containing borinic acid complexes and methods of use” (Anacor Pharmaceuticals, Inc., priority 2002, dated 2008)
Values after ≈ are worked out from the molar mass of the structure shown. Like-named read-outs stand apart in the source and are kept apart here.

Experiments:
S. pneumoniae ATCC 6301 = assay: MIC determination, S. pneumoniae ATCC 6301; type: cell-based, Streptococcus pneumoniae; conditions: for MIC: Streptococcus pneumoniae; for MIC S. pneumonia ATCC 6301: Table 2; for MIC S. pneumoniae ATCC 6301: Table 1
[1] = system: M. catarrhalis ATCC 25238; assay: MIC determination, M. catarrhalis ATCC 25238; type: cell-based; conditions: for MIC M. catarrhalis ATCC 25238: Table 1
[2] = system: S. epidermidis ATCC 12228; assay: MIC determination, S. epidermidis ATCC 12228; type: cell-based, Staphylococcus epidermidis; conditions: for MIC: Staphylococcus epidermidis, read-out: MIC S. epidermidis ATCC 12228
E. faecalis ATCC 29212 = assay: MIC determination, E. faecalis ATCC 29212; type: cell-based, Enterococcus faecalis; conditions: for MIC: Enterococcus faecalis, read-out: MIC E. faecalis ATCC 29212
S. aureus ATCC 29213 = assay: MIC determination, S. aureus ATCC 29213; type: cell-based, Staphylococcus aureus; conditions: for MIC: Staphylococcus aureus, read-out: MIC S. aureus ATCC 29213
E. faecium CT-26 = assay: MIC determination, E. faecium CT-26; type: cell-based, Enterococcus faecium; conditions: for MIC: Enterococcus faecium, read-out: MIC E. faecium CT-26
H. influenzae ATCC 49766 = assay: MIC determination, H. influenzae ATCC 49766; type: cell-based, Haemophilus influenzae; conditions: Table 2; for MIC: Haemophilus influenzae, ATCC49766
M. tuberculosis H37Rv = assay: Anti-mycobacterium in vitro activity, H37Rv; type: cell-based, Mycobacterium tuberculosis; conditions: Sensitive strain; for MIC: Mycobacterium tuberculosis, H37RV
[3] = ATCC6301, Table 2, read-out: MIC S. pneumonia ATCC 6301

C[C@@H](O)[C@H]1C(=O)N2C(C(=O)O)=C(SCCN=CN)C[C@H]12 [Imipenem, reference compound]
MIC (S. pneumoniae ATCC 6301; ATCC6301, Table 1, read-out: MIC S. pneumoniae ATCC 6301): 0.125 µg/mL (≈ 0.418 µM) | MIC (S. pneumoniae ATCC 6301; [3]): < 0.125 µg/mL | MIC ([1]; Moraxella catarrhalis, ATCC25238, Table 1, read-out: MIC M. catarrhalis ATCC 25238): 0.125 µg/mL (≈ 0.418 µM) | MIC ([2]; ATCC12228, Table 1): 0.125 µg/mL (≈ 0.418 µM) | MIC ([2]; ATCC12228, Table 2): 0.12 µg/mL (≈ 0.401 µM) | MIC (E. faecalis ATCC 29212; ATCC29212, Table 1): 1 µg/mL (≈ 3.34 µM) | MIC (E. faecalis ATCC 29212; ATCC29212, Table 2): 1 µg/mL (≈ 3.34 µM) | MIC (S. aureus ATCC 29213; ATCC29213, Table 1): 0.125 µg/mL (≈ 0.418 µM) | MIC (S. aureus ATCC 29213; ATCC29213, Table 2): 0.12 µg/mL (≈ 0.401 µM) | MIC (E. faecium CT-26; CT26, Table 1): 64 µg/mL (≈ 214 µM) | MIC (E. faecium CT-26; CT26, Table 2): 64 µg/mL (≈ 214 µM) | MIC (H. influenzae ATCC 49766): 2 µg/mL (≈ 6.68 µM)

CC1(C)O[B-](c2ccc(Cl)cc2)(c2ccc(Cl)cc2)[n+]2cccc(O)c21 [Compound 103]
MIC S. pneumonia ATCC 6301 (S. pneumoniae ATCC 6301): 0.5 micrograms per ml | MIC S. epidermidis ATCC 12228 ([2]; Table 2): 0.5 micrograms per ml | MIC E. faecalis ATCC 29212 (E. faecalis ATCC 29212; Table 2): 4 micrograms per ml | MIC S. aureus ATCC 29213 (S. aureus ATCC 29213; Table 2): 0.25 micrograms per ml | MIC E. faecium CT-26 (E. faecium CT-26; Table 2): 1 micrograms per ml | MIC H. influenzae ATCC 49766 (H. influenzae ATCC 49766): 64 micrograms per ml

Oc1cccc2cccnc12 [Compound 50, 8-hydroxyquinoline]
MIC S. pneumoniae ATCC 6301 (S. pneumoniae ATCC 6301): 2 micrograms per ml | MIC S. epidermidis ATCC 12228 ([2]; Table 1): 2 micrograms per ml | MIC E. faecalis ATCC 29212 (E. faecalis ATCC 29212; Table 1): 4 micrograms per ml | M. tuberculosis MIC H37Rv (M. tuberculosis H37Rv): 0.387 µg/mL | MIC S. aureus ATCC 29213 (S. aureus ATCC 29213; Table 1): 2 micrograms per ml | MIC E. faecium CT-26 (E. faecium CT-26; Table 1): 4 micrograms per ml

O=C(O)c1ncccc1O [Compound 117, 3-hydroxypicolinic acid]
MIC S. pneumonia ATCC 6301 (S. pneumoniae ATCC 6301): 0.5 micrograms per ml | MIC S. epidermidis ATCC 12228 ([2]; Table 2): 1 micrograms per ml | MIC E. faecalis ATCC 29212 (E. faecalis ATCC 29212; Table 2): 4 micrograms per ml | MIC S. aureus ATCC 29213 (S. aureus ATCC 29213; Table 2): 2 micrograms per ml | MIC E. faecium CT-26 (E. faecium CT-26; Table 2): 4 micrograms per ml | MIC H. influenzae ATCC 49766 (H. influenzae ATCC 49766): 16 micrograms per ml

CC1(C)S[C@@H]2[C@H](NC(=O)Cc3ccccc3)C(=O)N2[C@H]1C(=O)O [Pen G, reference compound]
MIC S. pneumoniae ATCC 6301 (S. pneumoniae ATCC 6301): 0.125 micrograms per ml | MIC S. pneumonia ATCC 6301 (S. pneumoniae ATCC 6301): <0.125 micrograms per ml | MIC M. catarrhalis ATCC 25238 [1]: 0.125 micrograms per ml | MIC S. epidermidis ATCC 12228 ([2]; Table 1): 16 micrograms per ml | MIC S. epidermidis ATCC 12228 ([2]; Table 2): 16 micrograms per ml | MIC E. faecalis ATCC 29212 (E. faecalis ATCC 29212; Table 1): 1 micrograms per ml | MIC E. faecalis ATCC 29212 (E. faecalis ATCC 29212; Table 2): 1 micrograms per ml | MIC S. aureus ATCC 29213 (S. aureus ATCC 29213; Table 1): 0.5 micrograms per ml | MIC S. aureus ATCC 29213 (S. aureus ATCC 29213; Table 2): 0.5 micrograms per ml | MIC E. faecium CT-26 (E. faecium CT-26; Table 1): 32 micrograms per ml | MIC E. faecium CT-26 (E. faecium CT-26; Table 2): 32 micrograms per ml | MIC H. influenzae ATCC 49766 (H. influenzae ATCC 49766): 0.12 micrograms per ml

Oc1cccc2cccnc12 [Compound 65, 8-hydroxyquinoline]
MIC S. pneumoniae ATCC 6301 (S. pneumoniae ATCC 6301): 2 micrograms per ml | MIC M. catarrhalis ATCC 25238 [1]: 4 micrograms per ml | MIC S. epidermidis ATCC 12228 ([2]; Table 1): 2 micrograms per ml | MIC E. faecalis ATCC 29212 (E. faecalis ATCC 29212; Table 1): 16 micrograms per ml | M. tuberculosis MIC H37Rv (M. tuberculosis H37Rv): 0.775 µg/mL | MIC S. aureus ATCC 29213 (S. aureus ATCC 29213; Table 1): 2 micrograms per ml | MIC E. faecium CT-26 (E. faecium CT-26; Table 1): 4 micrograms per ml

NNC(=O)c1ccncc1 [Isoniazid (INH), Isoniazid]
MIC (M. tuberculosis H37Rv): < 0.062 µg/mL

OCc1ccccn1 [Compound 105, 2-hydroxymethylpyridine]
MIC (S. pneumoniae ATCC 6301; [3]): 4 µg/mL (≈ 36.7 µM) | MIC ([2]; ATCC12228, Table 2): 4 µg/mL (≈ 36.7 µM) | MIC (E. faecalis ATCC 29212; ATCC29212, Table 2): 32 µg/mL (≈ 293 µM) | MIC (S. aureus ATCC 29213; ATCC29213, Table 2): 0.125 µg/mL (≈ 1.15 µM) | MIC (E. faecium CT-26; CT26, Table 2): 32 µg/mL (≈ 293 µM) | MIC (H. influenzae ATCC 49766): 4 µg/mL (≈ 36.7 µM)

CCc1cc(C(N)=S)ccn1 [Ethionamide]
MIC (M. tuberculosis H37Rv): 1 µg/mL (≈ 6.02 µM)

Oc1cccc2cccnc12 [Compound 72, 8-hydroxyquinoline]
MIC S. pneumoniae ATCC 6301 (S. pneumoniae ATCC 6301): 4 micrograms per ml | MIC S. epidermidis ATCC 12228 ([2]; Table 1): 2 micrograms per ml | MIC E. faecalis ATCC 29212 (E. faecalis ATCC 29212; Table 1): 64 micrograms per ml | M. tuberculosis MIC H37Rv (M. tuberculosis H37Rv): 0.775 µg/mL | MIC S. aureus ATCC 29213 (S. aureus ATCC 29213; Table 1): 4 micrograms per ml | MIC E. faecium CT-26 (E. faecium CT-26; Table 1): 4 micrograms per ml

Nc1ccc(C(=O)O)c(O)c1 [p-aminosalicylate]
M. tuberculosis MIC H37Rv (M. tuberculosis H37Rv): <0.25 µg/mL

[H]/N=C(/N)N[C@H]1[C@H](O)[C@@H](O)[C@H](O[C@@H]2O[C@@H](C)[C@](O)(C=O)[C@H]2O[C@@H]2O[C@@H](CO)[C@H](O)[C@@H](O)[C@@H]2NC)[C@@H](N/C(N)=N\[H])[C@@H]1O [Streptomycin]
MIC (M. tuberculosis H37Rv): < 2 µg/mL

Nc1ccc(O)c(C(=O)O)n1 [Compound 122]
MIC (S. pneumoniae ATCC 6301; [3]): 16 µg/mL (≈ 104 µM) | MIC ([2]; ATCC12228, Table 2): 4 µg/mL (≈ 26 µM) | MIC (E. faecalis ATCC 29212; ATCC29212, Table 2): 32 µg/mL (≈ 208 µM) | MIC (S. aureus ATCC 29213; ATCC29213, Table 2): 0.25 µg/mL (≈ 1.62 µM) | MIC (E. faecium CT-26; CT26, Table 2): 32 µg/mL (≈ 208 µM) | MIC (H. influenzae ATCC 49766): 8 µg/mL (≈ 51.9 µM)
